Data reported in US9034871B2, “Compounds for Alzheimer's disease” (priority 2004, dated 2015).
pIC50: −log10 of the molar value.

Tested on: Aβ42
Test: Detection of secreted Aβ42 with Biosource ELISA kit in H4 cells expressing APP695
Assay type: cell-based
Details: Ab42 lowering, cell based assay; read-out: Ab42 IC50
Procedure: The present invention provides compositions and methods for lowering Aβ42 levels. To test whether compounds and compositions are capable of modulating Aβ levels, a sandwich enzyme-linked immunosorbent assay (ELISA) is employed to measure secreted Aβ (Aβ42 and/or Aβ40) levels. In this example, H4 cells expressing wide type APP695 are seeded at 200,000 cells/per well in 6 well plates, and incubated at 37 degree C. with 5% CO2 overnight. Cells are treated with 1.5 ml medium containing vehicle (DMSO) or a test compound at 1.25 μM, 2.5 μM, 5.0 μM and 10.0 μM (as well as other concentration if desirable) concentration for 24 hours or 48 hours. The supernatant from treated cells is collected into eppendorf tubes and frozen at −80 degree C. for future analysis.
The amyloid peptide standard is reconstituted and frozen samples are thawed. The samples and standards are diluted with appropriate diluents and the plate is washed 4 times with Working Wash Buffer and patted dry on a paper towel. 100 μL per well of peptide standards, controls, and dilutions of samples to be analyzed is added. The plate is incubated for 2 hours while shaking on an orbital plate shaker at RT. The plate is then washed 4 times with Working Wash Buffer and patted dry on a paper towel. Detection Antibody Solution is poured into a reservoir and 100 μL /well of Detection Antibody Solution is immediately added to the plate. The plate is incubated at RT for 2 hours while shaking and then washed four times with Working Wash Buffer and patted dry on a paper towel. Secondary Antibody Solution is then poured into a reservoir and 100 μL /well of Secondary Antibody Solution is immediately added to the plate. The plate is incubated at RT for 2 hours with shaking, washed 5 times with Working Wash Buffer, and patted dry on a paper towel.
100 μL of stabilized chromogen is added to each well and the liquid in the wells begins to turn blue. The plate is incubated for 30 minutes at room temperature and in the dark. 100 μL of stop solution is added to each well and the plate is tapped gently to mix resulting in a change of solution color from blue to yellow. The absorbance of each well is read at 450 nm having blanked the plate reader against a chromogen blank composed of 100 μL each of stabilized chromogen and stop solution. The plate is read within 2 hours of adding the stop solution. The absorbance of the standards is plotted against the standard concentration and the concentrations of unknown samples and controls are calculated.
These compounds were synthesized via the indicated synthetic route. Ab42 IC50 (uM) refers to IC50 value for Ab42 lowering in e.g., the assay described in Example 6.

| pIC50 | Structure (SMILES) |
| --- | --- |
| 5.05 | O=C(O)CCCc1ccc(-n2c(-c3ccc4c(c3)OCO4)cc3c4ccccc4ccc32)cc1 |
| 4.51 | Cc1onc(-c2ccccc2)c1-c1cc2c3ccccc3ccc2n1-c1cccc(-c2nn[nH]n2)c1 |
| 4.00 | c1ccc(-c2cc3c(n2-c2cccc(-c4nn[nH]n4)c2)CCCC3)cc1 |
| < 4.00 | CC1CCc2c(cc(-c3ccccc3)n2-c2nc(C(=O)O)cs2)C1 (stereo not drawn) [2-(5-methyl-2-phenyl-4,5,6,7-tetrahydroindol-1-yl) thiazole-4-carboxylic acid] |
| < 4.00 | COc1ccc(-c2cc3c(n2-c2nc(C(=O)O)cs2)CCC(C(F)(F)F)C3)c(OC)c1 (stereo not drawn) [2-[2-(2,4-dimethoxyphenyl)-5-trifluoromethyl-4,5,6,7-tetrahydroindol-1-yl]-thiazole-4-carboxylic acid] |
| < 4.00 | COc1ccc(-c2cc3c(n2-c2nc(C(=O)O)cs2)CCC(C(F)(F)F)C3)cc1OC (stereo not drawn) [2-[2-(3,4-dimethoxyphenyl)-5-trifluoromethyl-4,5,6,7-tetrahydroindol-1-yl]-thiazole-4-carboxylic acid] |
| 4.25 | c1cc(-c2nn[nH]n2)cc(-n2c(-c3ccc4c(c3)OCO4)cc3c4ccccc4ccc32)c1 [2-benzo[1,3]dioxol-5-yl-3-[3-(2H-tetrazol-5-yl)-phenyl]-3H-benzo[e]indole] |
| 5.03 | c1cc(-c2nn[nH]n2)cc(-n2c(-c3cc4ccccc4o3)cc3c2CCc2ccccc2-3)c1 [2-benzofuran-2-yl-3-[3-(2H-tetrazol-5-yl)-phenyl]-4,5-dihydro-3H-benzo[e]indole] |
| 4.49 | c1ccc(-c2cc3c4ccccc4ccc3n2-c2cccc(-c3nn[nH]n3)c2)nc1 [2-pyridin-2-yl-3-[3-(2H-tetrazol-5-yl)-phenyl]-3H-benzo[e]indole] |
| 4.37 | c1ccc(-c2cc3c(n2-c2cccc(-c4nn[nH]n4)c2)CCc2ccccc2-3)nc1 [2-pyridin-2-yl-3-[3-(2H-tetrazol-5-yl)-phenyl]-4,5-dihydro-3H-benzo[e]indole] |
| 4.34 | c1cncc(-c2cc3c4ccccc4ccc3n2-c2cccc(-c3nn[nH]n3)c2)c1 [2-pyridin-3-yl-3-[3-(2H-tetrazol-5-yl)-phenyl]-3H-benzo[e]indole] |
| < 4.00 | c1cncc(-c2cc3c(n2-c2cccc(-c4nn[nH]n4)c2)CCc2ccccc2-3)c1 [2-pyridin-3-yl-3-[3-(2H-tetrazol-5-yl)-phenyl]-4,5-dihydro-3H-benzo[e]indole] |
| 4.14 | c1cc(-c2nn[nH]n2)cc(-n2c(-c3ccncc3)cc3c2CCc2ccccc2-3)c1 [2-pyridin-4-yl-3-[3-(2H-tetrazol-5-yl)-phenyl]-4,5-dihydro-3H-benzo[e]indole] |
| 4.74 | O=C(O)c1cccc(-n2c(-c3ccc4c(c3)OCO4)cc3c2CCc2ccccc2-3)c1 [3-(2-benzo[1,3]dioxol-5-yl-4,5-dihydrobenzo[e]indol-3-yl) benzoic acid] |
| 4.70 | O=C(O)c1cccc(-n2c(-c3ccc4c(c3)OCO4)cc3c4ccccc4ccc32)c1 [3-(2-benzo[1,3]dioxol-5-yl-benzo[e]indol-3-yl) benzoic acid] |
| 6.25 | O=C(O)c1cccc(-n2c(-c3cc4ccccc4o3)cc3c2CCc2ccccc2-3)c1 [3-(2-benzofuran-2-yl-4,5-dihydrobenzo[e]indol-3-yl) benzoic acid] |
| 5.93 | O=C(O)c1cccc(-n2c(-c3cc4ccccc4o3)cc3c4ccccc4ccc32)c1 [3-(2-benzofuran-2-yl-benzo[e]indol-3-yl) benzoic acid] |
| 4.15 | O=C(O)c1cccc(-n2c(-c3ccccc3)cc3c2CC(c2ccccn2)CC3)c1 (stereo not drawn) [3-(2-phenyl-6-pyridin-2-yl-4,5,6,7-tetrahydroindol-1-yl) benzoic acid] |
| 4.15 | O=C(O)c1cccc(-n2c(-c3ccccn3)cc3c2CCc2ccccc2-3)c1 [3-(2-pyridin-2-yl-4,5-dihydrobenzo[e]indol-3-yl) benzoic acid] |
| 4.10 | O=C(O)c1cccc(-n2c(-c3ccccn3)cc3c4ccccc4ccc32)c1 [3-(2-pyridin-2-yl-benzo[e]indol-3-yl) benzoic acid] |
| < 4.00 | O=C(O)c1cccc(-n2c(-c3cccnc3)cc3c2CCc2ccccc2-3)c1 [3-(2-pyridin-3-yl-4,5-dihydrobenzo[e]indol-3-yl) benzoic acid] |

| pIC50 | Structure (SMILES) |
| --- | --- |
| < 4.00 | O=C(O)c1cccc(-n2c(-c3cccnc3)cc3c4ccccc4ccc32)c1 [3-(2-pyridin-3-yl-benzo[e]indol-3-yl) benzoic acid] |
| 4.19 | O=C(O)c1cccc(-n2c(-c3ccncc3)cc3c2CCc2ccccc2-3)c1 [3-(2-pyridin-4-yl-4,5-dihydrobenzo[e]indol-3-yl) benzoic acid] |
| 4.09 | O=C(O)c1cccc(-n2c(-c3ccncc3)cc3c4ccccc4ccc32)c1 [3-(2-pyridin-4-yl-benzo[e]indol-3-yl) benzoic acid] |
| 4.88 | O=C(O)c1cccc(-n2c(-c3ccsc3)cc3c4ccccc4ccc32)c1 [3-(2-thiophen-3-yl-benzo[e]indol-3-yl) benzoic acid] |
| < 4.00 | O=C(O)c1cccc(-n2nc(-c3ccccc3)cc2-c2ccccc2)c1 [3-(3,5-diphenyl-pyrazol-1-yl)-benzoic acid] |
| < 4.00 | O=C(O)c1cccc(-c2cc3c4ccccc4ccc3n2-c2ccoc2)c1 [3-(3-furan-3-yl-3H-benzo[e]indol-2-yl) benzoic acid] |
| < 4.00 | O=C(O)c1cccc(-c2cc3c(n2-c2cccnc2)CCc2ccccc2-3)c1 [3-(3-pyridin-3-yl-4 5-dihydro-3H-benzo[e]indol-2-yl) benzoic acid] |
| 4.40 | Cc1onc(-c2ccccc2)c1-c1cc2c3ccccc3ccc2n1-c1cccc(C(=O)O)c1 [3-[2-(5-methyl-3-phenylisoxazol-4-yl)-benzo[e]indol-3-yl] benzoic acid] |
| 5.43 | CCC(C)(C)C1CCc2c(cc(-c3cc4ccccc4o3)n2-c2cccc(C(=O)O)c2)C1 (stereo not drawn) [3-[2-benzofuran-2-yl-5-(1,1-dimethylpropyl) 4,5,6,7-tetrahydroindol-1-yl] benzoic acid] |
| 4.51 | c1cc(-c2nn[nH]n2)cc(-n2c(-c3ccsc3)cc3c4ccccc4ccc32)c1 [3-[3-(2H-tetrazol-5-yl)-phenyl]-2-thiophen-3-yl-3H benzo[e]indole] |
| 4.48 | O=C(O)c1cccc(-n2c(-c3ccc(-c4ccc(Cl)cc4Cl)o3)cc3c4ccccc4ccc32)c1 [3-{2-[5-(2,4-dichlorophenyl)-furan-2-yl]-benzo[e]indol-3-yl} benzoic acid] |
| < 4.00 | O=C(O)c1ccc(-c2cc3c4ccccc4ccc3n2-c2ccoc2)cc1 [4-(3-furan-3-yl-3H-benzo[e]indol-2-yl) benzoic acid] |
| < 4.00 | O=C(O)c1ccc(-c2cc3c(n2-c2cccnc2)CCc2ccccc2-3)cc1 [4-(3-pyridin-3-yl-4,5-dihydro-3H-benzo[e]indol-2-yl) benzoic acid] |
| 4.77 | O=C(O)CCCc1ccc(-n2c(-c3ccc(-c4ccc(Cl)cc4Cl)o3)cc3c4ccccc4ccc32)cc1 [4-(4-{2-[5-(2 4-dichlorophenyl)-furan-2-yl]-benzo[e]indol-3-yl}-phenyl) butyric acid] |
| 5.06 | O=C(O)CCCc1ccc(-n2c(-c3ccc4c(c3)OCO4)cc3c2CCc2ccccc2-3)cc1 [4-[4-(2-benzo[1,3]dioxol-5-yl-dihydrobenzo[e]indol-3-yl)-phenyl] butyric acid] |
| 5.35 | O=C(O)CCCc1ccc(-n2c(-c3cc(-c4ccccc4)no3)cc3c4ccccc4ccc32)cc1 [4-{4-[2-(3-phenylisoxazol-5-yl)-benzo[e]indol-3-yl]-phenyl} butyric acid] |
| 5.82 | Cc1onc(-c2ccccc2)c1-c1cc2c(n1-c1ccc(CCCC(=O)O)cc1)CCc1ccccc1-2 [4-{4-[2-(5-methyl-3-phenylisoxazol-4-yl)-4,5-dihydrobenzo[e]indol-3-yl]-phenyl} butyric acid] |
| 6.00 | Cc1onc(-c2ccccc2)c1-c1cc2c3ccccc3ccc2n1-c1ccc(CCCC(=O)O)cc1 [4-{4-[2-(5-methyl-3-phenylisoxazol-4-yl)-benzo[e]indol-3-yl]-phenyl} butyric acid] |
| 4.36 | O=C(O)c1ccc(-n2c(-c3cc4ccccc4o3)cc3c2CCC(C(F)(F)F)C3)o1 (stereo not drawn) [5-(2-benzofuran-2-yl-5-trifluoromethyl-4,5,6,7-tetrahydroindol-1-yl)-furan-2-carboxylic acid] |
| 4.64 | O=C(O)c1ccc(-n2c(-c3cc4ccccc4o3)cc3c2CC(C(F)(F)F)CC3)o1 (stereo not drawn) [5-(2-benzofuran-2-yl-6-trifluoromethyl-4,5,6,7-tetrahydroindol-1-yl)-furan-2-carboxylic acid] |
| 4.66 | O=C(O)c1ccc(-n2c(-c3cc4ccccc4o3)cc3c4ccccc4ccc32)o1 [5-(2-benzofuran-2-yl-benzo[e]indol-3-yl) furan-2-carboxylic acid] |
